Test results reported in ChEMBL document CHEMBL3611982, “Lowering the pKa of a bisimidazoline lead with halogen atoms results in improved activity and selectivity against Trypanosoma brucei in vitro” (Eur J Med Chem, 2015).
Active and inactive are the calls of the source. The rule behind the calls is not given here.

What was measured:
[1] = tested on: Trypanosoma brucei brucei; assay: Trypanocidal activity against diminazene/pentamidine/melaminophenyl arsenicals-resistant bloodstream form of Trypanosoma brucei brucei B48 trypomastigotes after 70 hrs by Alamar Blue assay; assay type: functional, organism-based; conditions: B48, 70 h
[2] = tested on: Trypanosoma brucei brucei; assay: Trypanocidal activity against wild type bloodstream form of Trypanosoma brucei brucei s427 trypomastigotes after 70 hrs by Alamar Blue assay; assay type: functional, organism-based; conditions: s427, 70 h
[3] = Cytotoxicity against HEK293T cells after 30 hrs by Alamar Blue assay; assay type: cell-based, HEK-293T; conditions: human
[4] = tested on: Trypanosoma brucei brucei; assay: Resistant factor, ratio of EC50 for diminazene/pentamidine/melaminophenyl arsenicals-resistant Trypanosoma brucei brucei B48 to EC50 for wild type bloodstream form of Trypanosoma brucei brucei s427 trypomastigotes; assay type: functional
[5] = Selectivity index, ratio of CC50 for HEK293T cells to EC50 for wild type bloodstream form of Trypanosoma brucei s427 trypomastigotes; assay type: toxicity, cell-based, HEK-293T; conditions: human, read-out: Ratio CC50/EC50
[6] = tested on: Trypanosoma brucei brucei; assay: Trypanocidal activity against Trypanosoma brucei brucei s427 at 5 uM measured over 1 hr by propidium iodide staining-based fluorimetric analysis; assay type: functional, organism-based
[7] = tested on: Trypanosoma brucei brucei; assay: Trypanocidal activity against Trypanosoma brucei brucei s427 at 2.5 uM measured over 2 hrs by propidium iodide staining-based fluorimetric analysis; assay type: functional, organism-based
[8] = tested on: Trypanosoma brucei brucei; assay: Trypanocidal activity against Trypanosoma brucei brucei s427 at >5 fold EC50 measured within 6 hrs by propidium iodide staining-based fluorimetric analysis; assay type: functional, organism-based
[9] = tested on: Trypanosoma brucei brucei; assay: Trypanocidal activity against Trypanosoma brucei brucei s427 measured within 6 hrs by propidium iodide staining-based fluorimetric analysis; assay type: functional, organism-based

SMILES: O=C(Nc1ccc(N=C2NCCN2)c(F)c1)c1ccc(N=C2NCCN2)cc1
- EC50 [1]: 790 nM
- EC50 [2]: 580 nM
- CC50 at 30 h [3]: > 200000 nM
- Ratio EC50 [4]: 1.4
- selectivity ratio [5]: > 340

SMILES: O=C(Nc1ccc(N=C2NCCN2)cc1)c1ccc(N=C2NCCN2)cc1F
- EC50 [1]: 650 nM
- EC50 [2]: 470 nM
- Activity [6]: Active
- CC50 at 30 h [3]: > 200000 nM
- Ratio EC50 [4]: 1.4
- selectivity ratio [5]: > 420
- Activity [7]: Active

SMILES: N=C(N)c1ccc(/N=N/Nc2ccc(C(=N)N)cc2)cc1 [DIMINAZENE]
- EC50 [1]: 780 nM
- EC50 [2]: 12 nM
- Ratio EC50 [4]: 42

SMILES: O=C(Nc1ccc(N=C2NCCN2)cc1)c1ccc(N=C2NCCN2)c(F)c1
- EC50 [1]: 690 nM
- EC50 [2]: 530 nM
- CC50 at 30 h [3]: > 200000 nM
- Ratio EC50 [4]: 1.3
- selectivity ratio [5]: > 370

SMILES: O=C(Nc1ccc(NC2=NCCN2)cc1)c1ccc(NC2=NCCN2)cc1
- EC50 [1]: 870 nM
- Activity [8]: Active
- EC50 [2]: 830 nM
- CC50 at 30 h [3]: > 200000 nM
- Activity [9]: Dose-dependent effect
- Ratio EC50 [4]: 1.1
- selectivity ratio [5]: > 240

SMILES: N=C(N)c1ccc(OCCCCCOc2ccc(C(=N)N)cc2)cc1 [PENTAMIDINE]
- EC50 [1]: 550 nM
- EC50 [2]: 0.11 nM
- Ratio EC50 [4]: 3349

SMILES: O=C(Nc1ccc(N=C2NCCN2)cc1)c1ccc(N=C2NCCN2)cc1Cl
- EC50 [1]: 2440 nM
- EC50 [2]: 1320 nM
- CC50 at 30 h [3]: > 200000 nM
- Ratio EC50 [4]: 1.8
- selectivity ratio [5]: > 150

SMILES: O=C(Nc1ccc(N=C2NCCN2)cc1Cl)c1ccc(N=C2NCCN2)cc1
- EC50 [1]: 4350 nM
- EC50 [2]: 4220 nM
- CC50 at 30 h [3]: > 200000 nM
- Ratio EC50 [4]: 1
- selectivity ratio [5]: > 45

SMILES: O=C(Nc1ccc(N=C2NCCN2)cn1)c1ccc(N=C2NCCN2)cc1
- EC50 [1]: 3230 nM
- EC50 [2]: 1040 nM
- CC50 at 30 h [3]: > 200000 nM
- Ratio EC50 [4]: 3.1
- selectivity ratio [5]: > 190

SMILES: O=C(Nc1ccc(N=C2NCCN2)cc1F)c1ccc(N=C2NCCN2)cc1
- EC50 [1]: 2160 nM
- EC50 [2]: 1580 nM
- CC50 at 30 h [3]: > 200000 nM
- Ratio EC50 [4]: 1.4
- selectivity ratio [5]: > 120

SMILES: O=C(Nc1ccc(N=C2NCCN2)cc1)c1ccc(N=C2NCCN2)c(Cl)c1
- EC50 [1]: 830 nM
- EC50 [2]: 970 nM
- CC50 at 30 h [3]: > 200000 nM
- Ratio EC50 [4]: 0.9
- selectivity ratio [5]: > 200

SMILES: O=C(Nc1ccc(N=C2NCCN2)c(Cl)c1)c1ccc(N=C2NCCN2)cc1
- EC50 [1]: 360 nM
- EC50 [2]: 220 nM
- Activity [6]: Active
- CC50 at 30 h [3]: > 200000 nM
- Ratio EC50 [4]: 1.7
- selectivity ratio [5]: > 900
